EP2970359B1, “FLUORINATED PYRIMIDINE ANALOGS AND METHODS OF USE THEREOF” (Epigenetics Pharma LLC, priority 2013, dated 2014)
“And” between values parts separate entries of the source, which are not always exact repeats. Identical values can stand only once. “Also recorded” adds a separate entry of the source. Like-named read-outs stand apart in the source and are kept apart here.

Key:
Kasumi-1 cells [1] = assay: Giemsa stain of treated cells (morphology); type: cell-based; details: compared with vehicle control, FIGURE 11
MDA-MB-231 = assay: In vitro cytotoxicity (GI50), breast cancer cell line; details: Homo sapiens
Experimental: (§1) The in vitro cytotoxicity was measured in the following cell lines: NCI-H460 (ATCC #HTB-177) (non-small cell lung), HCT-116 (ATCC #CCL-247) (colorectal), HL-60 (ATCC #CCL-240) (leukemia), and MDA-MB-231 (ATCC #HTB-26) (breast). Table 4. Growth Inhibition (GI50) Values (µM) for Selected Cell Lines.

[2] = known; cleavage of the base at the 6-position of the cytosine ring; cited from earlier work
THP-1 cells = assay: Giemsa stain of treated cells (morphology); type: cell-based; details: compared to vehicle control, FIGURE 10
OVCAR-8 = assay: In vitro cytotoxicity, ovarian cancer cell line; type: cell-based; details: Homo sapiens, Table 1, asterisk not explained
NCI-H460 = assay: In vitro cytotoxicity (GI50), non-small cell lung cancer cell line; details: Homo sapiens
Experimental: as §1

ACHN = assay: In vitro cytotoxicity, renal cancer cell line; type: cell-based; details: Homo sapiens, Table 1, asterisk not explained
HL-60 = assay: In vitro cytotoxicity (GI50), leukemia cell line; type: cell-based; details: Homo sapiens
Experimental: as §1

HCT-116 = assay: In vitro cytotoxicity (GI50), colorectal cancer cell line; details: Homo sapiens
Experimental: as §1

L1210 [3] = assay: In vitro cytotoxicity, leukemia cell line; details: for IC50: Mus musculus, L1210, read-out: In vitro cytotoxicity Leukemia L1210
[4] = following subcutaneous administration; reported; cited from earlier work
Stability in water = type: physicochemical
L1210 [5] = details: Table 3
P388 = assay: In vitro cytotoxicity, leukemia cell line; details: Mus musculus, P388, read-out: In vitro cytotoxicity Leukemia P388*
Kasumi-1 cells [6] = assay: Growth inhibition of leukemia cell line compared with decitabine; type: cell-based; details: Kasumi-1, equimolar concentrations; FIGURE 8
THP-1 leukemia cells = assay: as above; type: cell-based; details: THP-1, equimolar concentrations; FIGURE 7
[7] = system: DNA methyltransferase (DNMT); assay: In vitro DNA methyltransferase inhibition in HCT-116 cells (EpiQuick DNA Methyltransferase Activity/Inhibition Assay Kit)
DNMT1 = molecular target: T1, DNMT1 (Homo sapiens, UniProt P26358); assay: Western blot of DNMT1 in Kasumi-1 cells; type: cell-based; details: two concentrations, FIGURE 9
T1 construct: endogenous in cells; host or cells: Kasumi-1
T1 sequence (P26358 whole entry): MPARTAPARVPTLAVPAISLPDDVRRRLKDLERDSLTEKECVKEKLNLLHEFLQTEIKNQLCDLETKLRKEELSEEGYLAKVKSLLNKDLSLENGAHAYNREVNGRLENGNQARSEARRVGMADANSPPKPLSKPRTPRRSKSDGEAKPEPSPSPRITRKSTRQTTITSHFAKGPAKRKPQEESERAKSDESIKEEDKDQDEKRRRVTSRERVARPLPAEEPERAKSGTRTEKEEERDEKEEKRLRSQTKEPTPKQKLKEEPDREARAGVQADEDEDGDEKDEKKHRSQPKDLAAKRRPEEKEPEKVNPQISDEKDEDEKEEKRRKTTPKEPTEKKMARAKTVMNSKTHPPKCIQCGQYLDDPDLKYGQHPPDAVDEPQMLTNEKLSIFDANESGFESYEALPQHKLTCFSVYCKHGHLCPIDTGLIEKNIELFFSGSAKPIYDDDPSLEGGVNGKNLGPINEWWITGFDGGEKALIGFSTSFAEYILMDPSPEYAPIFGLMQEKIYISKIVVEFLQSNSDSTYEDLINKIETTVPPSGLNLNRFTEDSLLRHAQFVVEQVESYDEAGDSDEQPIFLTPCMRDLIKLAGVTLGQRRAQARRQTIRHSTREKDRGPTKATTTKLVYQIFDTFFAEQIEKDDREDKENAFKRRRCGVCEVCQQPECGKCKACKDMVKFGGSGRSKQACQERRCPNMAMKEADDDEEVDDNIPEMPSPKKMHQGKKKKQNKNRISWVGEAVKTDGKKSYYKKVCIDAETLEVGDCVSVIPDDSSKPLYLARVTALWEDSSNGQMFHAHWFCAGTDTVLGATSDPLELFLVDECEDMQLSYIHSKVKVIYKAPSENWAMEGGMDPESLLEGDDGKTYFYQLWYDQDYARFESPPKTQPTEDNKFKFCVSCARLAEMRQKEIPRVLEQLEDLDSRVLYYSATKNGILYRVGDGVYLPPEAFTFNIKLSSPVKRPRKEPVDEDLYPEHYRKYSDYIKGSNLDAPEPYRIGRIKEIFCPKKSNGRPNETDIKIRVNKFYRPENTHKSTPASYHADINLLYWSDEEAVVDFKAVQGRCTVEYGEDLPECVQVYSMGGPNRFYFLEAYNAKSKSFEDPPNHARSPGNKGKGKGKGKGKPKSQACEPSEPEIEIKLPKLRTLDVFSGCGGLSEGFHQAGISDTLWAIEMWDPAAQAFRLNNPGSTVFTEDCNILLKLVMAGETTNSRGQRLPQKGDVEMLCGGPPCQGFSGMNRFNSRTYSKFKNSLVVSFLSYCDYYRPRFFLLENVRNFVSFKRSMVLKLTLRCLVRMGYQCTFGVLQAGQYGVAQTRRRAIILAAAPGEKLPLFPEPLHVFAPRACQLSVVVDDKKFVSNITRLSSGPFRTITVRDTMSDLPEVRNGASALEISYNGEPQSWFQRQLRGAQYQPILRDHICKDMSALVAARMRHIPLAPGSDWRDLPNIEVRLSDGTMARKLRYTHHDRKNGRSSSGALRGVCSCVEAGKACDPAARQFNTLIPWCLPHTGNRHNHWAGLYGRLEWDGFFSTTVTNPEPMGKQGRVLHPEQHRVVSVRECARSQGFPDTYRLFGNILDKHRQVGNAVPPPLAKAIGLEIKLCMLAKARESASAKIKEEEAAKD

[8] = MDA-MB-231, read-out: Growth Inhibition (GI50) MDA-MB-231
[9] = MDA-MB-231, read-out: In vitro cytotoxicity Breast MDA-MB-231
[10] = NCI-H460, read-out: Growth Inhibition (GI50) NCI-H460
[11] = NCI-H460, read-out: In vitro cytotoxicity NSCL NCI-H460
[12] = HCT-116, read-out: Growth Inhibition (GI50) HCT-116
[13] = HCT-116, read-out: In vitro cytotoxicity Colon HCT-116
[14] = HL-60, Table 4, read-out: Growth Inhibition (GI50) HL-60

SMILES | GI50 (MDA-MB-231; [8]) [µM] | IC50 (MDA-MB-231; [9]) [µM] | GI50 (NCI-H460; [10]) [µM] | IC50 (NCI-H460; [11]) [µM] | GI50 (HCT-116; [12]) [µM] | IC50 (HCT-116; [13]) [µM] | GI50 (HL-60; [14]) [µM] | IC50 (L1210 [3]) [µM] | also measured
Nc1ncn([C@H]2C[C@H](O)[C@@H](CO)O2)c(=O)n1 [Decitabine, 5-azadeoxycytidine, reference compound] | > 31.2 | > 62.5 | 13 | 13 to 44 | > 31.2 | > 62.5 |  |  | morphologic changes (Giemsa stain) (Kasumi-1 cells [1]): morphologic changes suggestive of cell differentiation; stability in water [2]: unstable in water; morphologic changes (Giemsa stain) (THP-1 cells): morphologic changes suggestive of cell differentiation; IC50 (OVCAR-8): > 1000 µM; IC50 (ACHN): > 1000 µM; GI50 (HL-60; HL-60, read-out: Growth Inhibition (GI50) HL-60): 0.27 µM
NC1=NC(=O)N([C@@H]2O[C@H](CO)[C@@H](O)[C@H]2O)CN1 [5,6-dihydro-5-azacytidine, reference compound] | > 31.2 |  | 4.84 |  | 21.4 |  | 0.03 |  | 
O=c1ncccn1[C@@H]1O[C@H](CO)[C@@H](O)[C@H]1O [Zebularine, reference compound] |  | 144 |  | 99.1 |  | 47.9 |  | 108 | 
Nc1ncn([C@@H]2O[C@H](CO)[C@@H](O)[C@H]2O)c(=O)n1 [Azacytidine, 5-azacytidine] |  |  |  |  |  |  | 0.44 | 1.7 to 2.4 | half-life [4]: 41 min
NC1=NC(=O)N([C@@H]2O[C@H](CO)[C@@H](O)C2(F)F)CN1 [NUC014, 2',2'-difluoro-5,6-dihydro-5-azadeoxycytidine] |  | > 31.2 |  | > 31.2 |  | > 31.2 |  | 90.6 | stability in an aqueous environment (Stability in water): stable in an aqueous environment; hydrolytic cleavage at the 6-position of the cytosine (Stability in water; aqueous environment): does not undergo hydrolytic cleavage; cytotoxicity against leukemia cell line L1210 (in words) (L1210 [3]): moderate cytotoxicity
O=c1ncccn1[C@@H]1O[C@H](CO)[C@@H](O)C1(F)F [NUC019, 2'-deoxy-2',2'-difluorozebularine] | 166 |  | 136 |  | 310 |  |  |  | 
O=c1ncccn1[C@H]1O[C@H](CO)[C@@H](O)C1(F)F [NUC020] |  |  |  |  |  |  |  |  | GI50 (MDA-MB-231; [9]): 213 µM; GI50 (NCI-H460; [11]): 136 µM; GI50 (L1210 [5]): 346 µM; GI50 (HCT-116; [13]): 279 µM
Nc1ccn([C@@H]2O[C@H](CO)[C@@H](O)C2(F)F)c(=O)n1 [gemcitabine, reference compound] | 0.72 |  | 0.02 |  | 0.01 |  | 0.03 |  | 
Nc1ncn([C@@H]2O[C@H](CO)[C@@H](O)C2(F)F)c(=O)n1 [NUC013, 2',2'-difluoro-5-azadeoxycytidine] | > 31.2 | > 62.5 | 4.39 | 4.39 | 4.54 | 4.54 | 1.51 | 1.02 | IC50 (P388): 0.48 µM; morphologic changes (Giemsa stain) (Kasumi-1 cells [1]): morphologic changes suggestive of cell differentiation; morphologic changes (Giemsa stain) (THP-1 cells): morphologic changes suggestive of cell differentiation; inhibitory effect on cell growth / cytoreduction compared with decitabine (Kasumi-1 cells [6]): slightly weaker effect; also recorded: weaker cytoreduction; IC50 (OVCAR-8): 25.9 µM; IC50 (ACHN): 0.89 µM; inhibitory effect on cell growth / cytoreduction compared with decitabine (THP-1 leukemia cells): stronger inhibitory effect; also recorded: stronger cytoreduction; Percent Inhibition of DNMT ([7]; 1 µM, 24 hours, HCT-116 cells, one value per experiment (1-4)): 61.73% and 35.77% and 62.63%; potency as a DNMTI relative to 5-azacytidine ([7]; colon cancer cells, FIGURE 6): approximately 10 fold; GI50 (HCT-116; HCT-116): 4.54 µM; DNMT1 inhibition by Western blot compared with equimolar decitabine (DNMT1): weaker DNMT1 inhibition
